Measured values: patent US5603943A, “Nasally administrable compositions” (Dott Research Laboratory, priority 1994, dated 1997)
Values joined by “and” are separate entries in the source; they are usually repeats but may differ in a detail not shown here. Equal entries are not always repeated.

Experiments:
[1] = Glucagon blood concentration, nasal powder with hydroxyapatite (Test Example 8); assay type: in vivo, healthy male adults (human)
Description: A nasally administrable composition in powdery form was prepared by formulating glucagon (from hog spleen) as a physiologically active peptide at the rate of 40 mg per composition (1,000 mg) with hydroxyapatite as a carrier having a mean particle size ranging from 40 to 45 μm.
The resulting composition was nasally administered once at a dose of 1.2 glucagon unit/30 mg to three healthy male adults and the blood (2.5 ml) was collected from each of the tested adults prior to administration and then at 5, 10, 15, 20, 30, 45, 60, 90, 120, 150 and 180 minutes after administration. The concentration of the glucagon in each of the collected blood samples was assayed with a standard RIA assay kit.

[2] = Glucagon blood concentration, nasal powder with calcium carbonate (Test Example 9); assay type: in vivo, healthy male adults (human); settings: for Concentration of glucagon in the blood: nasal 1.2 glucagon unit/30 mg, individual cases No. 21-24 in order
Description: (§1) A nasally administrable composition in powdery form was prepared by formulating glucagon (from hog spleen) as a physiologically active peptide at the rate of 40 mg per composition (1,000 mg) with calcium carbonate as a carrier having a mean particle size ranging from 40 to 45 μm.
[…] The concentration of the glucagon in each of the collected blood samples was assayed with a standard RIA assay kit.

[3] = Nasal absorption, clinical effect and irritation (general statement); assay type: in vivo; settings: powder in specific carrier, nasal route
[4] = Glucagon blood concentration, nasal powder with calcium carbonate, two doses (Test Example 12); assay type: in vivo, healthy male adults (human)
Description: as §1
The resulting composition was nasally administered once at a dose of 0.4 glucagon unit/30 mg to two healthy male adults and 2 glucagon unit/30 mg to another two healthy male adults, and the blood (2.5 ml) was collected from each of the tested adults prior to administration and then at 5, 10, 15, 20, 30, 45, 60, 90, 120, 150 and 180 minutes after administration. The concentration of the glucagon in each of the collected blood samples was assayed with a standard RIA assay kit.

glucagon
absorption through nasal route [1]: high extent of absorption | Concentration of glucagon in the blood ([1]; 0 min (predose), nasal 1.2 glucagon unit/30 mg, individual cases No. 17-20 in order): 0.051 ng/mL and 0.046 ng/mL and 0.036 ng/mL and 0.068 ng/mL | absorption through nasal route [2]: high extent of absorption | Concentration of glucagon in the blood ([2]; 0 min (predose)): 0.034 ng/mL and 0.056 ng/mL and 0.042 ng/mL and 0.048 ng/mL | Concentration of glucagon in the blood ([2]; 5 min): 0.073 ng/mL and 0.079 ng/mL and 0.08 ng/mL and 0.053 ng/mL | Concentration of glucagon in the blood ([2]; 10 min): 0.097 ng/mL and 0.091 ng/mL and 0.08 ng/mL and 0.044 ng/mL | Concentration of glucagon in the blood ([2]; 15 min): 0.086 ng/mL and 0.079 ng/mL and 0.083 ng/mL and 0.053 ng/mL | Concentration of glucagon in the blood ([2]; 20 min): 0.085 ng/mL and 0.089 ng/mL and 0.082 ng/mL and 0.05 ng/mL | Concentration of glucagon in the blood ([2]; 30 min): 0.071 ng/mL and 0.077 ng/mL and 0.09 ng/mL and 0.055 ng/mL | Concentration of glucagon in the blood ([2]; 45 min): 0.073 ng/mL and 0.089 ng/mL and 0.076 ng/mL and 0.049 ng/mL | Concentration of glucagon in the blood ([2]; 60 min): 0.064 ng/mL and 0.079 ng/mL and 0.077 ng/mL and 0.046 ng/mL | Concentration of glucagon in the blood ([2]; 90 min): 0.062 ng/mL and 0.078 ng/mL and 0.073 ng/mL and 0.047 ng/mL | Concentration of glucagon in the blood ([2]; 120 min): 0.056 ng/mL and 0.079 ng/mL and 0.088 ng/mL and 0.046 ng/mL | Concentration of glucagon in the blood ([2]; 150 min): 0.052 ng/mL and 0.067 ng/mL and 0.079 ng/mL and 0.054 ng/mL | Concentration of glucagon in the blood ([2]; 180 min): 0.051 ng/mL and 0.066 ng/mL and 0.062 ng/mL and 0.05 ng/mL | absorption into the body [3]: well absorbed into the body | clinical effects [3]: high clinical effects | Concentration of glucagon in the blood ([4]; 0 min (predose), nasal 0.4 glucagon unit/30 mg, individual cases No. 33-34 in order): 0.112 ng/mL and 0.06 ng/mL | Concentration of glucagon in the blood ([4]; 0 min (predose), nasal 2 glucagon unit/30 mg, individual cases No. 35-36 in order): 0.053 ng/mL and 0.097 ng/mL | absorption through nasal route ([4]; 0.4 and 2 glucagon unit): high extent of absorption | Concentration of glucagon in the blood ([4]; 5 min, nasal 0.4 glucagon unit/30 mg, individual cases No. 33-34 in order): 0.115 ng/mL and 0.065 ng/mL | Concentration of glucagon in the blood ([4]; 5 min, nasal 2 glucagon unit/30 mg, individual cases No. 35-36 in order): 0.076 ng/mL and 0.109 ng/mL | Concentration of glucagon in the blood ([4]; 10 min, nasal 0.4 glucagon unit/30 mg, individual cases No. 33-34 in order): 0.119 ng/mL and 0.077 ng/mL | Concentration of glucagon in the blood ([4]; 10 min, nasal 2 glucagon unit/30 mg, individual cases No. 35-36 in order): 0.116 ng/mL and 0.104 ng/mL | Concentration of glucagon in the blood ([4]; 15 min, nasal 0.4 glucagon unit/30 mg, individual cases No. 33-34 in order): 0.13 ng/mL and 0.072 ng/mL | Concentration of glucagon in the blood ([4]; 15 min, nasal 2 glucagon unit/30 mg, individual cases No. 35-36 in order): 0.085 ng/mL and 0.096 ng/mL | Concentration of glucagon in the blood ([4]; 20 min, nasal 0.4 glucagon unit/30 mg, individual cases No. 33-34 in order): 0.127 ng/mL and 0.079 ng/mL | Concentration of glucagon in the blood ([4]; 20 min, nasal 2 glucagon unit/30 mg, individual cases No. 35-36 in order): 0.102 ng/mL and 0.118 ng/mL | Concentration of glucagon in the blood ([4]; 30 min, nasal 0.4 glucagon unit/30 mg, individual cases No. 33-34 in order): 0.116 ng/mL and 0.086 ng/mL | Concentration of glucagon in the blood ([4]; 30 min, nasal 2 glucagon unit/30 mg, individual cases No. 35-36 in order): 0.056 ng/mL and 0.1 ng/mL | Concentration of glucagon in the blood ([4]; 45 min, nasal 0.4 glucagon unit/30 mg, individual cases No. 33-34 in order): 0.121 ng/mL and 0.075 ng/mL | Concentration of glucagon in the blood ([4]; 45 min, nasal 2 glucagon unit/30 mg, individual cases No. 35-36 in order): 0.094 ng/mL and 0.105 ng/mL | Concentration of glucagon in the blood ([4]; 60 min, nasal 0.4 glucagon unit/30 mg, individual cases No. 33-34 in order): 0.137 ng/mL and 0.061 ng/mL | Concentration of glucagon in the blood ([4]; 60 min, nasal 2 glucagon unit/30 mg, individual cases No. 35-36 in order): 0.079 ng/mL and 0.122 ng/mL | Concentration of glucagon in the blood ([4]; 90 min, nasal 0.4 glucagon unit/30 mg, individual cases No. 33-34 in order): 0.122 ng/mL and 0.066 ng/mL | Concentration of glucagon in the blood ([4]; 90 min, nasal 2 glucagon unit/30 mg, individual cases No. 35-36 in order): 0.06 ng/mL and 0.117 ng/mL | Concentration of glucagon in the blood ([4]; 120 min, nasal 0.4 glucagon unit/30 mg, individual cases No. 33-34 in order): 0.108 ng/mL and 0.057 ng/mL | Concentration of glucagon in the blood ([4]; 120 min, nasal 2 glucagon unit/30 mg, individual cases No. 35-36 in order): 0.069 ng/mL and 0.099 ng/mL | Concentration of glucagon in the blood ([4]; 150 min, nasal 0.4 glucagon unit/30 mg, individual cases No. 33-34 in order): 0.111 ng/mL and 0.076 ng/mL | Concentration of glucagon in the blood ([4]; 150 min, nasal 2 glucagon unit/30 mg, individual cases No. 35-36 in order): 0.069 ng/mL and 0.106 ng/mL | Concentration of glucagon in the blood ([4]; 180 min, nasal 0.4 glucagon unit/30 mg, individual cases No. 33-34 in order): 0.11 ng/mL and 0.074 ng/mL | Concentration of glucagon in the blood ([4]; 180 min, nasal 2 glucagon unit/30 mg, individual cases No. 35-36 in order): 0.06 ng/mL and 0.105 ng/mL
